# Tests used:
# [1] = system: pre-established BLM-induced skin fibrosis; conditions: imatinib at 150 mg/kg orally once daily day 22-42, positive control
# [2] = system: dermal fibroblasts from healthy donors; assay: TGF-β-induced human fibroblast activation, healthy donors; format: cell-based; conditions: concentration of 1000 nmol/L; TGF-β 10 ng/mL, 24 hours
# Text: (§1) Full-thickness skin biopsies were obtained from clinically involved skin of patients affected by dcSSc, who were recruited from the Systemic sclerosis clinic within the Leeds Institute of Rheumatic and Musculoskeletal Medicine (UK). Control skin samples were from healthy donors. All patients with dcSSc and healthy donors provided written informed consent through the stratification for risk of progression in systemic sclerosis (STRIKE SSC), which had been approved by the North-East Research Ethic committee. Patients with SSc fulfilled the 2013 ACR/EULAR classification criteria for SSc and were classified as having dcSSc according to the LeRoy and Medsger criteria.
# Dermal fibroblasts were isolated from the skin biopsy samples of healthy donors and SSc patients. The skin biopsy samples were minced with a scalpel, placed in plastic culture dishes and covered with Dulbecco's Modified Eagle Medium (DMEM) with 4.5 g/L glucose (Thermo Fisher Scientific) supplemented with 20% fetal calf serum (FCS, Thermo Fisher Scientific), 1% penicillin and streptomycin (Merck), and 1 μg/ml of amphotericin (Thermo Fisher Scientific) and cultured at 37° C. in a humidified atmosphere of 5% CO2. Additional growth medium was added after 3 days with no amphotericin. After 7 days, culture medium was replaced with medium containing 10% FCS and subsequently replenished every 2 to 3 days. When a visible outgrowth of cells was obtained, the fibroblasts were passaged. Briefly, cells were incubated with PBS containing 0.1% EDTA for 5 min, and then detached with trypsin-EDTA solution (Merck), and cultured until 70-80% confluent in DMEM (1 g/L glucose) supplemented with 10% FCS and 1% penicillin and streptomycin. After a subsequent passage, primary cells were retrovirally immortalized using human telomerase reverse transcriptase. […]
# (§2) Total RNA was extracted using the Zymo quick RNA mini prep kit according to manufacturer's instructions (Zymo Research Corporation). […] Quantitative RT-PCR was performed in triplicates using SYBR Green RT-PCR Mastermix Kit (Thermo Fisher Scientific) and the ABI PRISM 7500 Fast Real Time PCR System (Applied Biosystems). […]
# FIGS. 5(A)-5(B) show the effect of Compound A on human fibroblast activation. Dermal fibroblasts from a healthy individual or an SSc patient were grown to confluence, and placed under starvation for 24 hours in a medium supplemented with 1% fetal bovine serum (A: mRNA expression of ACTA2 and COL1A1 in dermal fibroblasts of healthy individuals was measured by real-time PCR, and normalized for the GAPDH expression level. B: mRNA expression of ACTA2 and COL1A1 in dermal fibroblasts of SSc patients was measured for by real-time PCR, and normalized for the GAPDH expression level). Each bar represents the mean±SEM of the measured values from three wells. […]
# [3] = system: dermal fibroblasts from SSc patients; assay: TGF-β-induced human fibroblast activation, SSc patients; format: cell-based; conditions: concentration of 1000 nmol/L; TGF-β 10 ng/mL, 24 hours
# Text: as §1
# Dermal fibroblasts were isolated from the skin biopsy samples of healthy donors and SSc patients. […]
# as §2
# FIGS. 5(A)-5(B) show the effect of Compound A on human fibroblast activation. […] Each bar represents the mean±SEM of the measured values from three wells. […]
# [4] = system: bleomycin (BLM)-induced skin fibrosis model; conditions: reported in the literature; cited from earlier work
Compound,BLM-induced increase of skin thickness [1],BLM-induced increase of αSMA-positive myofibroblasts in the dermis [1],BLM-induced loss of dermal white adipose tissue [1],TGF-β-induced increase in αSMA mRNA expression [2],TGF-β-induced increase in αSMA mRNA expression [3],skin fibrosis [4]
"Cc1ccc(NC(=O)c2ccc(CN3CCN(C)CC3)cc2)cc1Nc1nccc(-c2cccnc2)n1 [imatinib, reference compound]",improved,improved,improved,–,–,–
α-MSH [reference compound],–,–,–,suppressed,suppressed,suppress
